From ChEMBL document CHEMBL1201862, “PubChem BioAssay data set” (2004) come the findings set out here.

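Interpolation was linear, between the two tested concentrations surrounding the appropriate level; five concentrations were tested over 48 hours in 96-well plates. GI50 = concentration required for 50% inhibition of growth.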 Active and inactive are the calls of the source. No stated cut-off is given here; in the data, active = GI50 up to about 1.1 µM and inactive = higher.

What all share (assay): NCI-60 cell line screen, 48 h
Test [1] has as its system LOX IMVI.
Test [2] relates to IGROV-1.
Test [3] has as its system HCT-116.
For test [4], the system named is TK-10.
Test [5] relates to UACC-257.
The subject of test [6] is CCRF-CEM.
Test [7] relates to UO-31.
Test [8] has as its system RXF 393.
Test [9] has as its system NCI-H522.
For test [10], the system named is HOP-92.
Test [11] deals with RPMI-8226.
Test [12] relates to HL-60.
The test system of test [13] is NCI-H23.
Test [14] has as its system HOP-62.
Test [15] deals with HT-29.
The test system of test [16] is SK-MEL-28.
Test [17] deals with ACHN.
Test [18] relates to OVCAR-4.

On to `Cc1ccccc1C1=[N+]([O-])c2ccccc2C1=O`, for which the GI50 was 18.7 µM (inactive) in [1]; 18.3 µM (inactive) in [2]; 18.5 µM (inactive) in test [3]; 18.3 µM (inactive) in test [4]; 14.7 µM (inactive) in test [5]; 18.5 µM (inactive) in test [6]. Also, the GI50 in test [7] is 19.1 µM (inactive); in test [8], 21.9 µM (inactive); in test [9], 15.2 µM (inactive); in test [10], 49.4 µM (inactive); in [11], 39.2 µM (inactive); in test [12], 10.3 µM (inactive). For the same molecule, the GI50 in [13] is 20.3 µM (inactive); in [14] it was 23.1 µM (inactive); in test [15] it was 14.5 µM (inactive); in test [16] it was 20.7 µM (inactive); in [17] it was 16.9 µM (inactive).
In the case of `Cc1oc2c(C)c(O)c3c(c2c1C1(C)OCCO1)C(=O)C=C(Cl)C3=O`, the GI50 in [1], in test [18], in test [2], in [3], in test [4] and in [5] was > 100 µM (inactive) each time. In addition, the GI50 in [6], in test [7], in [8], in [9], in test [10] and in test [11] was > 100 µM (inactive) each time. Moreover, the GI50 in [12], in test [13], in test [14], in test [15], in [16] and in [17] was > 100 µM (inactive) throughout.
As for `Cc1cc(N(CCC#N)CCC#N)ccc1/N=N/c1cccc(Cl)c1`, the GI50 in test [18], in test [3], in [4], in [5], in test [6] and in test [7] was > 100 µM (inactive) each time. The GI50 in test [8] is 75 µM (inactive); in test [9], > 100 µM (inactive); in test [10], 20.7 µM (inactive); in test [11] it was > 100 µM (inactive); in test [12] it was 3.94 µM (inactive); in [13], 80.7 µM (inactive). In addition, the GI50 is 86.5 µM (inactive) in test [14], 4.08 µM (inactive) in test [15], > 100 µM (inactive) in [16] and > 100 µM (inactive) in [17].
With `CN(C)CCN(C)C(=O)C1CCCN1C(=O)OCc1ccccc1` (stereo unspecified), the GI50 in test [1], in [18], in [2], in test [3], in [4] and in test [5] was > 100 µM (inactive) each time. The GI50 in [6] is 19.4 µM (inactive); in test [7], > 100 µM (inactive); in [8], > 100 µM (inactive); in [9], 6.71 µM (inactive); in test [10], > 100 µM (inactive); in [11], > 100 µM (inactive). For the same molecule, the GI50 in [12] is 34.7 µM (inactive); in test [13], > 100 µM (inactive); in [14], > 100 µM (inactive); in [15] it was > 100 µM (inactive); in [16] it was > 100 µM (inactive); in test [17], > 100 µM (inactive).
Regarding `O=C(c1ccccc1)c1c(C(=O)c2ccccc2)c(-c2ccccc2)c2c(-c3ccccc3)sc(-c3ccccc3)c2c1-c1ccccc1`, the GI50 in test [1], in [18], in [2], in test [3], in test [4] and in test [5] was > 100 µM (inactive) in each case. Besides, the GI50 in test [6], in [7], in test [8], in test [9], in test [10] and in test [11] was > 100 µM (inactive) each time. For the same molecule, the GI50 in [12], in [13], in [14], in test [15], in [16] and in [17] was > 100 µM (inactive) in each case.
Regarding `Oc1cc(O)c(Oc2cccc(O)c2O)c(O)c1`, the GI50 in [18] is 15.5 µM (inactive); in [2], > 100 µM (inactive); in test [4] it was > 100 µM (inactive); in [5], > 100 µM (inactive); in [6], 33.3 µM (inactive); in [7] it was > 100 µM (inactive). In addition, the GI50 is > 100 µM (inactive) in test [8]; 49.7 µM (inactive) in [9]; > 100 µM (inactive) in [10]; > 100 µM (inactive) in test [11]; 99.5 µM (inactive) in test [12]; > 100 µM (inactive) in test [13]. For the same molecule, the GI50 in test [14], in test [15], in test [16] and in [17] was > 100 µM (inactive) in each case.
Consider `O=C/C(=C(/Cl)c1ccc(O)cc1)c1ccccc1`, for which the GI50 is 21.6 µM (inactive) in test [1]; 22.2 µM (inactive) in test [18]; 26 µM (inactive) in test [2]; 18.1 µM (inactive) in test [3]; 29 µM (inactive) in test [4]; 31.2 µM (inactive) in test [5]. In addition, the GI50 is 15.2 µM (inactive) in test [6]; 21 µM (inactive) in test [7]; 21.6 µM (inactive) in test [8]; 13.3 µM (inactive) in test [9]; 16.6 µM (inactive) in test [10]; 17.2 µM (inactive) in [11]. Moreover, the GI50 in [12] is 38.5 µM (inactive); in [13], 24.4 µM (inactive); in test [15], 27.1 µM (inactive); in [16], 20.7 µM (inactive); in test [17], 20.9 µM (inactive).
As for `CCOC(=O)C1=C(Nc2cccc3ccccc23)OC/C1=N\NC(=O)c1ccccc1O`, the GI50 is 14.3 µM (inactive) in test [1]; 9.68 µM (inactive) in test [18]; 4.26 µM (inactive) in test [2]; 19.1 µM (inactive) in [3]; 21.1 µM (inactive) in test [4]; 22.9 µM (inactive) in test [5]. In addition, the GI50 in [6] was 4.86 µM (inactive); in test [7], 4.88 µM (inactive); in [8] it was 3.96 µM (inactive); in test [9] it was 7.64 µM (inactive); in [10], 11.1 µM (inactive); in test [11], 16.7 µM (inactive). For the same molecule, the GI50 in test [12] is 6.93 µM (inactive); in [13] it was 4.09 µM (inactive); in test [14], 13.5 µM (inactive); in [15] it was 29.7 µM (inactive); in test [16], 22.3 µM (inactive); in test [17], 8.63 µM (inactive).
In the case of `CC1=C(C(=O)Nc2ccccc2C)C(c2ccc(Cl)cc2)C(C(=O)Nc2ccccc2C)=C(C)N1`, the GI50 in test [1], in test [18], in [2], in [3], in test [4] and in test [5] was > 100 µM (inactive) each time. The GI50 in [6], in test [7], in test [8], in test [9], in test [10] and in test [11] was > 100 µM (inactive) throughout. Moreover, the GI50 in [12], in [13], in test [14], in test [15], in test [16] and in [17] was > 100 µM (inactive) in each case.
Turning to `CC1[C@@]2(CCC(C)(C)O2)O[C@@H]2C=C3C4CCC5Cc6nc7c(nc6C[C@@]5(C)C4C[C@H](O)[C@@]3(C)[C@]12O)CC1CCC2C3=C[C@H]4O[C@@]5(O[C@@](C)(CO)C[C@@H]5O)C(C)[C@@]4(O)[C@]3(C)[C@@H](O)CC2[C@]1(C)C7` (stereo partly specified), the GI50 in test [1] was 0.0526 µM (active); in test [18] it was 0.723 µM (active); in [2], 0.248 µM (active); in [3], 0.12 µM (active); in test [4], 0.681 µM (active); in [5], 0.138 µM (active). In addition, the GI50 is 0.0199 µM (active) in test [6]; 0.047 µM (active) in [7]; 0.00641 µM (active) in [8]; 0.00902 µM (active) in [9]; 0.0524 µM (active) in test [10]; 0.00653 µM (active) in test [11]. Further, the GI50 was 0.0307 µM (active) in test [12]; 0.118 µM (active) in [13]; 0.0272 µM (active) in [14]; 0.109 µM (active) in test [15]; 0.0553 µM (active) in [16]; 0.103 µM (active) in test [17].
As to `COc1ccccc1/C=C\c1cc(OC)c(OC)c(OC)c1`, the GI50 in [1] was 9.59 µM (inactive); in test [18] it was 25.8 µM (inactive); in [2], 6.41 µM (inactive); in [3], 9.23 µM (inactive); in [4] it was 43.6 µM (inactive); in [5], 31.6 µM (inactive). Further, the GI50 is 16.7 µM (inactive) in test [6]; 16.1 µM (inactive) in test [7]; 11 µM (inactive) in [8]; 6.14 µM (inactive) in test [9]; 8.65 µM (inactive) in test [10]; 5.01 µM (inactive) in test [11]. Moreover, the GI50 in test [12] is 3.22 µM (inactive); in [14] it was 5.18 µM (inactive); in test [15] it was 3.97 µM (inactive); in test [16], 33.9 µM (inactive); in test [17], 33.8 µM (inactive).
